pIC50: −log10 of the molar value.
Biological target: T1, IKKε (Homo sapiens, UniProt Q14164)
T1 sequence (Q14164 1-716): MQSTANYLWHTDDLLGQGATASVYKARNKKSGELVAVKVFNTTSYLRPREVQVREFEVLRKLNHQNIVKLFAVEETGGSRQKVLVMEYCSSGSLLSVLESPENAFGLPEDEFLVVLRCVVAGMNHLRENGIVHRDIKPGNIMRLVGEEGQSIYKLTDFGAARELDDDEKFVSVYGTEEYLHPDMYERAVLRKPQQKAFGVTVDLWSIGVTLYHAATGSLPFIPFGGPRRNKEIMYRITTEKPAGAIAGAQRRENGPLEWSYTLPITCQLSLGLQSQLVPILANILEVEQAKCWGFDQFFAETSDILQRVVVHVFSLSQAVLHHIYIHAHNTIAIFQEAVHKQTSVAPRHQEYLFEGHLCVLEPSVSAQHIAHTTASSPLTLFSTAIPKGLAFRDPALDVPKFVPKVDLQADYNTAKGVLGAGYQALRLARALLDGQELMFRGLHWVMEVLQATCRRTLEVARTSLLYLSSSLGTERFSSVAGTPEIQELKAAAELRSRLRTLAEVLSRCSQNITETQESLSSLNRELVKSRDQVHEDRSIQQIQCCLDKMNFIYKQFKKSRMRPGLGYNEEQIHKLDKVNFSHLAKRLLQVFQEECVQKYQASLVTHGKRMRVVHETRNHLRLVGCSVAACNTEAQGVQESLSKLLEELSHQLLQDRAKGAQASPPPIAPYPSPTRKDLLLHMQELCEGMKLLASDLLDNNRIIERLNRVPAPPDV
Assay type: biochemical

Work on `N#CCNC(=O)c1ccc(-c2ccnc(Nc3ccc(N4CCOCC4)cc3)n2)cc1` [CYT387] yielded a pIC50 of 7.38.

From publication PMC3980023 (Cancer discovery, 2014)
